According to PMC5727127, “H3K14ac is linked to methylation of H3K9 by the triple Tudor domain of SETDB1” (Nature Communications, 2017):
Blank lines part the entries; values can stand above or below the compound they belong to.

Legend:
[1] = tested on: SETDB1 3TD, GST-tagged, wildtype; test: Modified histone peptide array binding of 3TD wildtype; settings: GST-tagged 3TD, modified histone peptide arrays
Experimental: (§1) Experiments to determine the binding specificity of 3TD wildtype and mutants were performed using CelluSpots peptide arrays (MODified Histone Peptide Array, Active Motif), as described previously, in 20 mM HEPES pH 7.5, 100 mM KCl, 1 mM EDTA, 0.2 mM DTT, and 10% glycerol. All peptide array binding studies were conducted at least in two technical repeats. Annotations of all spots are given in Supplementary Table 2. The amounts of GST-fused Tudor proteins used in peptide array binding and western blot analyses ranged from 0.5 to 100 nM. For methylation analysis, MODified Histone Peptide arrays (Active Motif) were incubated with 20 nM SETDB1 in buffer (50 mM Tris/HCl pH 9.0, 4 mM DTT, 5 mM MgCl2) supplemented with 0.38 µM radioactively labeled [methyl-3H]-AdoMet (Perkin Elmer) for 2 h at room temperature. The arrays were then washed 5 times with wash buffer (100 mM NH4HCO3 and 1% SDS), incubated in Amplify NAMP100 (GE Healthcare) for 5 min, and then exposed to Hyperfilm TM ECL high-performance chemiluminescence film (GE Healthcare) in the dark at −80 °C for 1–7 days.

[2] = tested on: SETDB1 3TD Y268A; test: Modified histone peptide array binding of 3TD Y268A; settings: Y268A vs wildtype; peptide array and ITC assays
Experimental: as §1

[3] = molecular target: T1, SETDB1 3TD W358A (TD3) (Homo sapiens, UniProt Q15047, W358A); test: ITC binding of 3TD W358A to H3 peptides; settings: W358A vs wildtype
T1 construct: cloned into the pET28a-MHL (residues 190–410), pGEX6P2, and pGEX-4T-1 (residues 197–403) vectors; 6×His; made in house; host or cells: E. coli BL21 derivative (SGC) with pRARE
Experimental: (§2) ITC experiments were carried out at 25 °C on a VP-ITC calorimeter (MicroCal). Protein and peptide were kept in an identical buffer of 20 mM Tris/HCl pH 7.0 and 150 mM NaCl. ITC measurements were carried out with protein and ligand concentrations ranging from 50 to 100 μM and 1–2 mM, respectively. Binding isotherms were analyzed by nonlinear least-squares fitting of the data using Microcal ORIGIN software (Microcal) using a one-site binding model.

[4] = tested on: SETDB1 3TD W358A; test: Modified histone peptide array binding of 3TD W358A; settings: W358A vs wildtype
Experimental: as §1

[5] = tested on: SETDB1 3TD F332A; test: Modified histone peptide array binding of 3TD F332A; settings: replacement of F332 by alanine; peptide array and ITC
Experimental: as §1

[6] = molecular target: T2, SETDB1 3TD Y268A (TD2) (Homo sapiens, UniProt Q15047, Y268A); test: ITC binding of 3TD Y268A to H3 peptides; settings: Fig. 2c, Y268A relative to wildtype
T2 construct: cloned into the pET28a-MHL (residues 190–410), pGEX6P2, and pGEX-4T-1 (residues 197–403) vectors; 6×His; made in house; host or cells: E. coli BL21 derivative (SGC) with pRARE
Experimental: as §2

[7] = molecular target: T3, SETDB1 3TD, wildtype (Homo sapiens, UniProt Q15047); test: NMR chemical shift perturbation binding to 3TD; settings: 15N HSQC, 25 °C, pH 7.0, 150 mM NaCl
T3 construct: cloned into the pET28a-MHL (residues 190–410), pGEX6P2, and pGEX-4T-1 (residues 197–403) vectors; 6×His; made in house; host or cells: E. coli BL21 derivative (SGC) with pRARE
Experimental: NMR experiments were collected on a Bruker Avance 500-MHz spectrometer equipped with a cryogenic probe. Chemical shift perturbation experiments were carried out using uniformly ^15N-labeled wildtype 3TD protein in 20 mM Tris/HCl pH 7.0 and 150 mM NaCl. ^1H, ^15N HSQC spectra were recorded at 25 °C in the presence of increasing concentrations of histone tail peptides. K d values were calculated by a nonlinear least-squares analysis in Kaleidagraph using the equation Δδ=ΔδmaxcL+cP+Kd-cL+cP+Kd^2-4cLcP∕2cP, where c L is the concentration of the peptide, c P is the concentration of the protein, Δδ is the observed normalized chemical shift change, and Δδ max is the normalized chemical shift change at saturation, calculated as Δδ=ΔδH^2+ΔδN∕5^2, where δ is the chemical shift in p.p.m.
Supplementary Figure 1: Peptide binding of 3TD. (a) Titration of 3TD binding to peptide arrays. Note the specific binding to H3K9me1/2/3-K14ac double modified […]
concentration (100 nM). (b) ITC analysis of 3TD binding to single modified H3 tail […]
peptides. (c) NMR chemical shift perturbation experiments carried out to detect potentially weak binding of 3TD to H3K14ac, H3K9me3 and unmodified H3. Weak binding of H3K14ac could be detected and the […]
H3 was observed. Panel a relates to Fig. 1, panels b and c to Fig. 2.
(1 picture or pasted object on this page, not shown here)

[8] = tested on: HEK293 cells; test: Western blot of histone modifications after HDAC inhibitor treatment; assay type: cell-based, human; settings: HEK293, 48 h, 0.4 mM TSA or 5 mM sodium butyrate; for K9 methylation content of H3 from treated cells: western blot anti-K9me; for H3K14ac signal of H3 from treated cells: western blot anti-K14ac
Experimental: (§3) Native histones were isolated by acid extraction[55] from HEK293 cells, and recombinant histone H3 was purchased from New England Biolabs. For the experiment with HDAC inhibitors, cells were treated for 48 h with 0.4 mM TSA or 5 mM sodium butyrate. Five micrograms of native histones and matching amount of recombinant H3 were electrophoresed on 18% SDS-PAGE and transferred onto nitrocellulose membranes. The membrane was then blocked in 5% milk in TBST and incubated with purified GST-tagged 3TD, followed by the anti-GST (GE Healtcare 27457701A, dilution 1:5000) and anti-goat antibody (Sigma A4174, dilution 1:10000). The amount of GST-fused Tudor protein used in western blot analyses was 100 nM. All experiments were performed in duplicates or triplicates. In the western blots, following antibodies were used: anti-K14ac (Millipore MABE351, dilution for checking specificity: 1:2000 or 1:1000; for western blot: 1:500), anti-H3K9me3 (Abcam ab8898, dilution 1:2000), anti-H3K9me2 (Abcam ab1220, dilution 1:1000), and anti-H3K4me3 (Abcam ab8580, dilution 1:2000). For specificity analysis of antibodies, see Supplementary Fig. 13. Secondary antibodies were anti-rabbit IgG HRP (GE Healtcare NA934, dilution 1:5000) and anti-mouse IgG HRP (GE Healtcare NXA931, dilution 1:5000). Native histone and nucleosome pull-down experiments were done at least in two biological repeats. All antibodies were used following the manufacturer’s recommendations. Uncropped gel images are shown in Supplementary Fig. 14.

[9] = tested on: HEK293 cells; test: Far-western blot of 3TD binding to histones from HDAC inhibitor treated cells; assay type: cell-based, human; settings: HEK293, 48 h, 0.4 mM TSA or 5 mM sodium butyrate, 100 nM GST-3TD
Experimental: as §3, with “All antibodies were used following the manufacturer’s recommendations. Uncropped gel images are shown in Supplementary Fig. 14.” left out

SMILES: CC(=O)NCCCC[C@H](NC(=O)CNC(=O)CNC(=O)[C@@H](NC(=O)[C@H](CO)NC(=O)[C@H](CCCCN(C)C)NC(=O)[C@H](CCCNC(=N)N)NC(=O)[C@H](C)NC(=O)[C@@H](NC(=O)[C@H](CCC(N)=O)NC(=O)[C@@H](N)CCCCN)[C@@H](C)O)[C@@H](C)O)C(=O)N[C@@H](C)C(=O)N1CCC[C@H]1C(=O)N[C@@H](CCCNC(=N)N)C(=O)N[C@@H](CCCCN)C(=O)N[C@@H](CCC(N)=O)C(=O)O [H3K9me2/K14ac]
- peptide array binding, 3TD [1]: strong and selective binding
- change of binding, F332A [5]: strong reduction in affinity
- change of binding, Y268A [2]: not affected
- fold reduction of affinity, W358A [3]: 18 fold
- change of peptide array binding, W358A [4]: strong reduction in binding

SMILES: C[C@H](NC(=O)[C@@H](NC(=O)[C@H](CCC(N)=O)NC(=O)[C@@H](N)CCCCN)[C@@H](C)O)C(=O)N[C@@H](CCCNC(=N)N)C(=O)N[C@@H](CCCC[N+](C)(C)C)C(=O)N[C@@H](CO)C(=O)N[C@H](C(=O)NCC(=O)NCC(=O)N[C@@H](CCCCN)C(=O)N[C@@H](C)C(=O)N1CCC[C@H]1C(=O)N[C@@H](CCCNC(=N)N)C(=O)N[C@@H](CCCCN)C(=O)N[C@@H](CCC(N)=O)C(=O)O)[C@@H](C)O [H3K9me3]
- binding detected by NMR [7]: no detectable binding

SMILES: CCCC(=O)[O-].[Na+] [sodium butyrate]
- K9 methylation content of H3 from treated cells [8]: did not change
- H3K14ac signal of H3 from treated cells [8]: increased H3K14ac signal
- 3TD binding to histones from treated cells [9]: increased 3TD binding

SMILES: CC(/C=C/C(=O)NO)=C\[C@@H](C)C(=O)c1ccc(N(C)C)cc1 [trichostatin A]
- K9 methylation content of H3 from treated cells [8]: did not change
- H3K14ac signal of H3 from treated cells [8]: increased H3K14ac signal
- 3TD binding to histones from treated cells [9]: increased 3TD binding

The next lines start with results.

- peptide array binding, 3TD [1]: strong and selective binding
- change of binding, Y268A [2]: not affected
- change of peptide array binding, W358A [4]: loss
SMILES: CNCCCC[C@H](NC(=O)[C@H](CCCNC(=N)N)NC(=O)[C@H](C)NC(=O)[C@@H](NC(=O)[C@H](CCC(N)=O)NC(=O)[C@@H](N)CCCCN)[C@@H](C)O)C(=O)N[C@@H](CO)C(=O)N[C@H](C(=O)NCC(=O)NCC(=O)N[C@@H](CCCCNC(C)=O)C(=O)N[C@@H](C)C(=O)N1CCC[C@H]1C(=O)N[C@@H](CCCNC(=N)N)C(=O)N[C@@H](CCCCN)C(=O)N[C@@H](CCC(N)=O)C(=O)O)[C@@H](C)O [H3K9me1/K14ac]
- loss of binding in ITC, W358A [3]: completely lost

- peptide array binding, 3TD [1]: strong and selective binding
- change of binding, Y268A [2]: clear reduction in affinity
- change of peptide array binding, W358A [4]: only moderately reduced
SMILES: CC(=O)NCCCC[C@H](NC(=O)CNC(=O)CNC(=O)[C@@H](NC(=O)[C@H](CO)NC(=O)[C@H](CCCC[N+](C)(C)C)NC(=O)[C@H](CCCNC(=N)N)NC(=O)[C@H](C)NC(=O)[C@@H](NC(=O)[C@H](CCC(N)=O)NC(=O)[C@@H](N)CCCCN)[C@@H](C)O)[C@@H](C)O)C(=O)N[C@@H](C)C(=O)N1CCC[C@H]1C(=O)N[C@@H](CCCNC(=N)N)C(=O)N[C@@H](CCCCN)C(=O)N[C@@H](CCC(N)=O)C(=O)O [H3K9me3/K14ac]
- fold reduction of affinity, W358A [3]: 2 fold
- relative binding affinity, Y268A [6]: specific loss in binding
